The text below walks through data of patent US20060263802A1 (priority 2003, published 2006).

Common to all, as to type: binding
Test [1] deals with human monoclonal antibody CRJA.
The test system of test [2] is human monoclonal antibody CR57.
The test system of test [3] is human monoclonal antibody CRJB.
Test [4] relates to human monoclonal antibody CRJA. The source holds these as a separate data set.
Test [5] concerns human monoclonal antibody CR57. The source holds these as a separate data set.
Test [6] has as its system human monoclonal antibody CRJB. This is another data set of the same source.

As to VEELVRKREECLDAL, in test [1], the “Binding of CRJA to linear peptide (PEPSCAN-ELISA signal)” value (“Binding of CRJA to linear peptide” below) came out at 84. The “Binding of CR57 (10 μg/ml) to looped/cyclic peptide (PEPSCAN-ELISA)” value in test [2] stood at 55. In test [3], the “Binding of CRJB to linear peptide (PEPSCAN-ELISA signal)” value (shortened to “Binding of CRJB to linear peptide”) turned out to be 111. Besides, the “Binding of CRJA (10 μg/ml) to looped/cyclic peptide (PEPSCAN-ELISA)” value in test [4] turned out to be 69. Further, the “Binding of CR57 to linear peptide (PEPSCAN-ELISA signal)” value (“Binding of CR57 to linear peptide” for short) in test [5] is 58. Also, the “Binding of CRJB (10 μg/ml) to looped/cyclic peptide (PEPSCAN-ELISA)” value in test [6] is 27.

In the case of PDYRWLRTVKTTKES, in test [1], the “Binding of CRJA to linear peptide” value was determined as 83. For the same sequence, the “Binding of CR57 (10 μg/ml) to looped/cyclic peptide (PEPSCAN-ELISA signal)” value in test [2] is 79. The “Binding of CRJB to linear peptide” value in test [3] is 85. In test [4], the “Binding of CRJA (10 μg/ml) to looped/cyclic peptide (PEPSCAN-ELISA signal)” value is given as 90. Further, in test [5], the “Binding of CR57 to linear peptide” value amounted to 76. Moreover, the “Binding of CRJB (10 μg/ml) to looped/cyclic peptide (PEPSCAN-ELISA signal)” value in test [6] turned out to be 72.

For the sequence TWVAMQTSNETKWCP, the “Binding of CRJA to linear peptide” value in test [1] is reported as 100. In addition, the “Binding of CR57 (10 μg/ml) to looped/cyclic peptide (PEPSCAN-ELISA)” value in test [2] came out at 87. Further, in test [3], the “Binding of CRJB to linear peptide” value is on record as 118. Besides, the “Binding of CRJA (10 μg/ml) to looped/cyclic peptide (PEPSCAN-ELISA)” value in test [4] came out at 84. The “Binding of CR57 to linear peptide” value in test [5] came out at 78. The “Binding of CRJB (10 μg/ml) to looped/cyclic peptide (PEPSCAN-ELISA)” value in test [6] stood at 89.

Consider VVTEAENYTNFVGYV, for which the “Binding of CRJA to linear peptide” value in test [1] is reported as 90. Further, in test [2], the “Binding of CR57 (10 μg/ml) to looped/cyclic peptide (PEPSCAN-ELISA signal)” value was 80. The “Binding of CRJB to linear peptide” value in test [3] is 106. Besides, in test [4], the “Binding of CRJA (10 μg/ml) to looped/cyclic peptide (PEPSCAN-ELISA signal)” value amounted to 58. Besides, in test [5], the “Binding of CR57 to linear peptide” value stood at 87. The “Binding of CRJB (10 μg/ml) to looped/cyclic peptide (PEPSCAN-ELISA signal)” value in test [6] is 62.

LGPDGNVLIPEMQSS: in test [1], the “Binding of CRJA to linear peptide” value was found to be 99. In addition, the “Binding of CR57 (10 μg/ml) to looped/cyclic peptide (PEPSCAN-ELISA)” value in test [2] is on record as 150. Besides, the “Binding of CRJB to linear peptide” value in test [3] stood at 134. In addition, the “Binding of CRJA (10 μg/ml) to looped/cyclic peptide (PEPSCAN-ELISA)” value in test [4] was 104. In test [5], the “Binding of CR57 to linear peptide” value is given as 100. Further, in test [6], the “Binding of CRJB (10 μg/ml) to looped/cyclic peptide (PEPSCAN-ELISA)” value turned out to be 94.

Take GDPRYEESLHNPYPD: the “Binding of CRJA to linear peptide” value in test [1] was found to be 96. In addition, the “Binding of CR57 (10 μg/ml) to looped/cyclic peptide (PEPSCAN-ELISA signal)” value in test [2] is given as 64. Moreover, the “Binding of CRJB to linear peptide” value in test [3] amounted to 98. In addition, the “Binding of CRJA (10 μg/ml) to looped/cyclic peptide (PEPSCAN-ELISA signal)” value in test [4] turned out to be 90. For the same sequence, in test [5], the “Binding of CR57 to linear peptide” value came out at 36. The “Binding of CRJB (10 μg/ml) to looped/cyclic peptide (PEPSCAN-ELISA signal)” value in test [6] is 82.

Regarding SNETKWCPPDQLVNL, the “Binding of CRJA to linear peptide” value in test [1] is recorded as 94. Besides, the “Binding of CR57 (10 μg/ml) to looped/cyclic peptide (PEPSCAN-ELISA)” value in test [2] is listed as 129. Further, the “Binding of CRJB to linear peptide” value in test [3] worked out at 129. For the same sequence, the “Binding of CRJA (10 μg/ml) to looped/cyclic peptide (PEPSCAN-ELISA)” value in test [4] is recorded as 102. The “Binding of CR57 to linear peptide” value in test [5] was 99. In addition, the “Binding of CRJB (10 μg/ml) to looped/cyclic peptide (PEPSCAN-ELISA)” value in test [6] worked out at 93.

Turning to LLQQHMELLESSVIP, the “Binding of CRJA to linear peptide” value in test [1] worked out at 80. In addition, the “Binding of CR57 (10 μg/ml) to looped/cyclic peptide (PEPSCAN-ELISA)” value in test [2] came out at 123. Further, the “Binding of CRJB to linear peptide” value in test [3] is listed as 111. In test [4], the “Binding of CRJA (10 μg/ml) to looped/cyclic peptide (PEPSCAN-ELISA)” value was 165. The “Binding of CR57 to linear peptide” value in test [5] is given as 78. The “Binding of CRJB (10 μg/ml) to looped/cyclic peptide (PEPSCAN-ELISA)” value in test [6] is given as 129.

With DEGCTNLSGFSYMEL, the “Binding of CRJA to linear peptide” value in test [1] came out at 54. The “Binding of CR57 (10 μg/ml) to looped/cyclic peptide (PEPSCAN-ELISA signal)” value in test [2] is 1. In addition, in test [3], the “Binding of CRJB to linear peptide” value is recorded as 23. The “Binding of CRJA (10 μg/ml) to looped/cyclic peptide (PEPSCAN-ELISA signal)” value in test [4] is reported as 57. Also, the “Binding of CR57 to linear peptide” value in test [5] stood at 1. For the same sequence, the “Binding of CRJB (10 μg/ml) to looped/cyclic peptide (PEPSCAN-ELISA signal)” value in test [6] was 60.

Regarding CKLKLCGVLGLRLMD, in test [1], the “Binding of CRJA to linear peptide” value was found to be 88. In addition, the “Binding of CR57 (10 μg/ml) to looped/cyclic peptide (PEPSCAN-ELISA)” value in test [2] came out at 64. Moreover, in test [3], the “Binding of CRJB to linear peptide” value was 111. In test [4], the “Binding of CRJA (10 μg/ml) to looped/cyclic peptide (PEPSCAN-ELISA)” value came to 91. Moreover, in test [5], the “Binding of CR57 to linear peptide” value was found to be 410 and the “binding of antibody CR57 to linear peptide (PEPSCAN OD)” value is on record as “bound”. For the same sequence, the “Binding of CRJB (10 μg/ml) to looped/cyclic peptide (PEPSCAN-ELISA)” value in test [6] came to 74.

For CHPHVNGVFFNGIIL, the “Binding of CRJA to linear peptide” value in test [1] worked out at 94. The “Binding of CR57 (10 μg/ml) to looped/cyclic peptide (PEPSCAN-ELISA)” value in test [2] is reported as 113. The “Binding of CRJB to linear peptide” value in test [3] stood at 150. For the same sequence, the “Binding of CRJA (10 μg/ml) to looped/cyclic peptide (PEPSCAN-ELISA)” value in test [4] amounted to 105. Also, the “Binding of CR57 to linear peptide” value in test [5] is on record as 97. In addition, in test [6], the “Binding of CRJB (10 μg/ml) to looped/cyclic peptide (PEPSCAN-ELISA)” value is 101.

As to HLVVEELVRKREECL, the “Binding of CRJA to linear peptide” value in test [1] is reported as 111. In addition, the “Binding of CR57 (10 μg/ml) to looped/cyclic peptide (PEPSCAN-ELISA)” value in test [2] is 110. For the same sequence, the “Binding of CRJB to linear peptide” value in test [3] was 123. Further, the “Binding of CRJA (10 μg/ml) to looped/cyclic peptide (PEPSCAN-ELISA)” value in test [4] is on record as 110. The “Binding of CR57 to linear peptide” value in test [5] came out at 82. In addition, the “Binding of CRJB (10 μg/ml) to looped/cyclic peptide (PEPSCAN-ELISA)” value in test [6] was 105.
